According to patent US8546389B2 (priority 2010, dated 2013):

Legend:
1b (BK) NS5bΔ21 = 1b (BK) NS5bΔ21 (Hepatitis C virus genotype 1b (isolate BK) (HCV), UniProt P26663); assay: HCV polymerase inhibition assay, genotype 1b; type: biochemical, HCV genotype 1b (BK); conditions: 1b (BK) NS5bΔ21, 33P-GTP incorporation; read-out: 1b polymerase IC50 (range class)
Procedure, shortened: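 Both genotype 1b and 3a enzymes assayed identically: ^33P-GTP incorporation on poly(rC) template, GTP at Km, 50 nM NS5bΔ21, pH 7.5 Tris with 5 mM MgCl2 and MnCl2, 1 h reaction ended by cold EDTA. Filter-bound label counted; IC50 fitted by non-linear regression across three-fold dilution series.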

[1] = test system: genotype 1b (Con 1) subgenomic replicon cell line; assay: HCV replicon assay, genotype 1b (Renilla luciferase); type: cell-based, HCV genotype 1b (Con 1); conditions: Hepatitis C virus; genotype 1b replicon, 72 hours, luciferase; read-out: genotype 1b EC50 (range class)
Procedure, shortened: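 Subgenomic replicon cells expressing Renilla luciferase (1b Con1; 1a and 2a lines by the same method) seeded at 7000 cells/well (5000 for 2a) without G418, exposed to 3-fold compound dilutions for 72 h at 37 °C. Luciferase activity measured; EC50 by non-linear regression.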

Chain of 1b (BK) NS5bΔ21 (P26663 2420-2989): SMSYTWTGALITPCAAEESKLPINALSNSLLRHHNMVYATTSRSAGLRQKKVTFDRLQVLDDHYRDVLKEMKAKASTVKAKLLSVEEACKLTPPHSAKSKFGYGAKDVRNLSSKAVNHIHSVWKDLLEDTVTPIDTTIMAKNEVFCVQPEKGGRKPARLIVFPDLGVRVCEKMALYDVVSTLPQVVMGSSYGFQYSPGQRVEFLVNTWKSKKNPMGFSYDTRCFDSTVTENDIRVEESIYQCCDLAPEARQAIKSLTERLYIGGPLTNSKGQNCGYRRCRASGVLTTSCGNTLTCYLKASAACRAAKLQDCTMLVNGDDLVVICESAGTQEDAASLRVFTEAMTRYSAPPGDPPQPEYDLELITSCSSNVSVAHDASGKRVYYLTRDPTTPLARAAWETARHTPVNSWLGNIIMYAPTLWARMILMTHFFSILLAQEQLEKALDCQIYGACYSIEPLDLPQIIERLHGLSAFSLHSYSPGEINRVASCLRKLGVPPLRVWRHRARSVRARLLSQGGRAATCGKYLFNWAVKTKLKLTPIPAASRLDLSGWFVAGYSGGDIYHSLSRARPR

With CCOC(=O)C(CCCN(c1cc2nn(-c3ccc(Br)cc3)c(C(=O)NC)c2cc1C1CC1)S(C)(=O)=O)C(=O)OCC [Compound 212] the IC50 (1b (BK) NS5bΔ21) was less than 990 nM and the EC50 [1] was less than 990 nM.
For CNC(=O)c1c2cc(C3CC3)c(N(CCCOC)S(C)(=O)=O)cc2nn1-c1ccc(Br)cc1 [Compound 213], the IC50 (1b (BK) NS5bΔ21) was less than 990 nM and the EC50 [1] was less than 990 nM.
For CNC(=O)c1c2cc(C3CC3)c(N(CCCO)S(C)(=O)=O)cc2nn1-c1ccc(C)cc1 [Compound 214], the IC50 (1b (BK) NS5bΔ21) was less than 990 nM and the EC50 [1] was less than 990 nM.
Work on CNC(=O)c1c2cc(C3CC3)c(N(CCCNC(=O)[C@H]3CCC[C@H]3C(=O)OC)S(C)(=O)=O)cc2nn1-c1ccc(Br)cc1 [Compound 215] yielded an IC50 (1b (BK) NS5bΔ21) of less than 990 nM and an EC50 [1] of less than 990 nM.
CNC(=O)c1c2cc(C3CC3)c(N(CCCC(=O)NS(=O)(=O)C(F)(F)F)S(C)(=O)=O)cc2nn1-c1ccc(Cl)cc1 [Compound 217] was tested, and the IC50 (1b (BK) NS5bΔ21) was less than 990 nM and the EC50 [1] was 1000 to 9990 nM.
CNC(=O)c1c2cc(C3CC3)c(N(CCCNC(=O)[C@H]3C[C@H]3C(=O)O)S(C)(=O)=O)cc2nn1-c1ccc(Br)cc1 [Compound 218] was tested, and the IC50 (1b (BK) NS5bΔ21) was less than 990 nM and the EC50 [1] was 1000 to 9990 nM.
For CNC(=O)c1c2cc(C3CC3)c(N(CCCNC(=O)c3ccn(C)c(=O)c3)S(C)(=O)=O)cc2nn1-c1ccc(Br)cc1 [Compound 219], the IC50 (1b (BK) NS5bΔ21) was less than 990 nM and the EC50 [1] was 1000 to 9990 nM.
For CNC(=O)c1c2cc(C3CC3)c(N(CCCC(=O)OC(C)C)S(C)(=O)=O)cc2nn1-c1ccc(Br)cc1 [Compound 220], the IC50 (1b (BK) NS5bΔ21) was less than 990 nM and the EC50 [1] was less than 990 nM.
Work on CCN(C(=O)c1ccco1)c1cc2nn(-c3ccc(Br)cc3)c(C(=O)NC)c2cc1C1CC1 [Compound 221] yielded an IC50 (1b (BK) NS5bΔ21) of 10000 to 50000 nM and an EC50 [1] of 1000 to 9990 nM.
CNC(=O)c1c2cc(C3CC3)c(N(CCCO)S(C)(=O)=O)cc2nn1-c1ccc(Br)c(F)c1 [Compound 223] gave an IC50 (1b (BK) NS5bΔ21) of less than 990 nM and an EC50 [1] of less than 990 nM.
CNC(=O)c1c2cc(C3CC3)c(N(CCCC(C(=O)O)C(=O)O)S(C)(=O)=O)cc2nn1-c1ccc(Br)cc1 [Compound 224] was tested, and the IC50 (1b (BK) NS5bΔ21) was less than 990 nM and the EC50 [1] was 1000 to 9990 nM.
With CCOC(=O)CCCN(CC)c1cc2nn(-c3ccc(Br)cc3)c(C(=O)NC)c2cc1C1CC1 [Compound 225] the IC50 (1b (BK) NS5bΔ21) was 1000 to 9990 nM and the EC50 [1] was less than 990 nM.
CNC(=O)c1c2cc(C3CC3)c(-c3c(C)noc3C)cc2nn1-c1ccc(C)cc1 [Compound 226] showed an IC50 (1b (BK) NS5bΔ21) of 10000 to 50000 nM and an EC50 [1] of 1000 to 9990 nM.
CNC(=O)c1c2cc(C3CC3)c(N(CCCC(=O)O)S(C)(=O)=O)cc2nn1-c1ccc(C)cc1 [Compound 229] was tested, and the IC50 (1b (BK) NS5bΔ21) was less than 990 nM and the EC50 [1] was 10000 to 50000 nM.
For CCOC(=O)CCCN(c1cc2nn(-c3ccc(C)cc3)c(C(=O)NC)c2cc1C1CC1)S(C)(=O)=O [Compound 230], the IC50 (1b (BK) NS5bΔ21) was less than 990 nM and the EC50 [1] was less than 990 nM.
For CNC(=O)c1c2cc(C3CC3)c(N(CC3CC3)S(C)(=O)=O)cc2nn1-c1ccc(Br)cc1 [Compound 231], the IC50 (1b (BK) NS5bΔ21) was less than 990 nM and the EC50 [1] was less than 990 nM.
With CNC(=O)c1c2cc(C3CC3)c(N(CCOC)S(C)(=O)=O)cc2nn1-c1ccc(Br)cc1 [Compound 232] the IC50 (1b (BK) NS5bΔ21) was 1000 to 9990 nM and the EC50 [1] was less than 990 nM.
In the case of CNC(=O)c1c2cc(C3CC3)c(N(CCC(F)(F)F)S(C)(=O)=O)cc2nn1-c1ccc(Br)cc1 [Compound 233], the IC50 (1b (BK) NS5bΔ21) is reported as less than 990 nM and the EC50 [1] is reported as less than 990 nM.
CCN(c1cc2nn(-c3ccc(Br)c(F)c3)c(C(=O)NC)c2cc1C1CC1)S(C)(=O)=O [Compound 236] showed an IC50 (1b (BK) NS5bΔ21) of less than 990 nM and an EC50 [1] of less than 990 nM.
CNC(=O)c1c2cc(C3CC3)c(N(C)S(C)(=O)=O)cc2nn1-c1ccc(Cl)cc1 [Compound 237] showed an IC50 (1b (BK) NS5bΔ21) of less than 990 nM and an EC50 [1] of less than 990 nM.
With CNC(=O)c1c2cc(C3CC3)c(N(CCC(CO)CO)S(C)(=O)=O)cc2nn1-c1ccc(Cl)cc1 [Compound 238] the IC50 (1b (BK) NS5bΔ21) was less than 990 nM and the EC50 [1] was 1000 to 9990 nM.
In the case of CCN(c1cc2nn(-c3ccc(Cl)c(F)c3)c(C(=O)NC)c2cc1C1CC1)S(C)(=O)=O [Compound 239], the IC50 (1b (BK) NS5bΔ21) is reported as less than 990 nM and the EC50 [1] is reported as less than 990 nM.
CNC(=O)c1c2cc(C3CC3)c(N(CCF)S(C)(=O)=O)cc2nn1-c1ccc(Br)cc1 [Compound 241] gave an IC50 (1b (BK) NS5bΔ21) of less than 990 nM and an EC50 [1] of less than 990 nM.
With CNC(=O)c1c2cc(C3CC3)c(N(CCCNC(=O)C(C)C)S(C)(=O)=O)cc2nn1-c1ccc(Cl)cc1 [Compound 242] the IC50 (1b (BK) NS5bΔ21) was less than 990 nM and the EC50 [1] was less than 990 nM.
CNC(=O)c1c2cc(C3CC3)c(N(CCCOC)S(C)(=O)=O)cc2nn1-c1ccc(Cl)cc1 [Compound 243] showed an IC50 (1b (BK) NS5bΔ21) of less than 990 nM and an EC50 [1] of less than 990 nM.
Work on CCN(c1cc2nn(-c3ccc(C)c(F)c3)c(C(=O)NC)c2cc1C1CC1)S(C)(=O)=O [Compound 244] yielded an IC50 (1b (BK) NS5bΔ21) of less than 990 nM and an EC50 [1] of less than 990 nM.
In the case of CNC(=O)c1c2cc(C3CC3)c(N(CCC(F)(F)F)S(C)(=O)=O)cc2nn1-c1ccc(Cl)cc1 [Compound 245], the IC50 (1b (BK) NS5bΔ21) is reported as less than 990 nM and the EC50 [1] is reported as less than 990 nM.
